Results as given in patent publication US6693125B2 (CombinatoRx Incorporated, priority 2001, dated 2004).

Columns and labels:
[1] = tested on: A549 lung adenocarcinoma cells; assay: A549 bromodeoxyuridine (BrdU) cytoblot antiproliferative assay of compound dilution matrix; type: cell-based
Method: An 8× stock solution (128 μM) of each individual compound was made in Dulbecco's Modified Eagle Medium (DMEM) (Gibco 11995-040) containing 10% fetal bovine serum (FBS), […] L-glutamine, and 1% antibiotic/antimycotic solution. From this a 2-fold dilution series was made in DMEM. […] This compound mixture plate provided 4× concentrations of each compound that are transferred to assay plates.
The compound dilution matrix was assayed using the A549 bromodeoxyuri dine (BrdU) cytoblot method. […] Fifteen microliters of the 4× compound mixture matrix was added to each well of the plate containing the cells. The compound mixture matrix was transferred using a 16-channel pipettor (Finnpipette). In addition, control wells with paclitaxel (final concentration 4.6 μM), podophyllotoxin (9.6 μM), and quinacrine (8.5 μM) were added to each plate. Each experiment was conducted in triplicate plates.
After incubation for 48 hours at 37° C., BrdU was added to each well at a concentration of 10 μM. After 16 hours, the media was aspirated and the cells were fixed by the addition of 70% ethanol and phosphate-buffered saline (PBS) at room temperature for 1 hour. The fixative was aspirated and 2N HCl with Tween 20 (polyoxyethylene sorbitan monolaurate) was added to each well and the plates were incubated for 20 minutes at room temperature. The HCl was neutralized with a solution of 2N NaOH and the cells were washed twice with Hank's Balanced Salt Solution (HBSS) and once with PBS containing 0.5% bovine serum albumin (BSA) and 0.1% Tween 20. The wash solution was removed and mouse anti-BrdU primary antibody (PharMingen #555627) was diluted 1:1000 in PBS containing BSA, Tween 20, and secondary antibody at a dilution of 1:2000 (Amersham #NA931). The secondary antibody recognizes the mouse antibody and is conjugated to the enzyme horseradish peroxidase (HRP). After one hour of incubation, the antibody solution was removed and the cells washed once with PBS. After the PBS wash, the HRP substrate (which contains luminol, hydrogen peroxide, and an enhancer such as para-iodophenol) was added to each well. The plates were read using an LJL Analyst. All aspirations as well as the washes with PBS and HBSS were performed using a TECAN™ Power Washer 384. The amount of light output from each well indicates the amount of DNA synthesis that occurred in that well. Decreased light indicates antiproliferative action of the compounds.
Antiproliferative ratios were also calculated for paclitaxel, podophyllotoxin, and quinacrine and used for comparison.
The assays were performed as described in Example 2, above.

[2] = cited from earlier work
[3] = tested on: nocodozole-resistant NocR and Podrii6 cell lines; details: Gupta, Mol. Pharmacol. 30:142-148, 1986; cited from earlier work
[4] = mice, single intraperitoneal injection 10 mg/kg; cited from earlier work
[5] = Homo sapiens, A549, read-out: inhibition of growth

CCC[S+]([O-])c1ccc2[nH]c(NC(=O)OC)nc2c1 (stereo not shown) [Albendazole Sulfoxide, albendazole sulfoxide]
antiproliferative ratio ([1]; albendazole sulfoxide 0.5 μM + pentamidine isethionate 0 μM): 1.2
antiproliferative ratio ([1]; albendazole sulfoxide 1 μM + pentamidine isethionate 0 μM): 1.1
antiproliferative ratio ([1]; albendazole sulfoxide 2 μM + pentamidine isethionate 0 μM): 1.2
antiproliferative ratio ([1]; albendazole sulfoxide 4 μM + pentamidine isethionate 0 μM): 1.4
antiproliferative ratio ([1]; albendazole sulfoxide 8 μM + pentamidine isethionate 0 μM): 1.4

CCCSc1ccc2[nH]c(NC(=O)OC)nc2c1 [Albendazole, albendazole]
antiproliferative ratio ([1]; albendazole 0.03 μM + pentamidine isethionate 0 μM): 1.3
antiproliferative ratio ([1]; albendazole 0.06 μM + pentamidine isethionate 0 μM): 0.9
antiproliferative ratio ([1]; albendazole 0.13 μM + pentamidine isethionate 0 μM): 1.2
antiproliferative ratio ([1]; albendazole 0.25 μM + pentamidine isethionate 0 μM): 1.3
antiproliferative ratio ([1]; albendazole 0.5 μM + pentamidine isethionate 0 μM): 1.2
antiproliferative ratio ([1]; albendazole 1 μM + pentamidine isethionate 0 μM): 1.4
antiproliferative ratio ([1]; albendazole 2 μM + pentamidine isethionate 0 μM): 2.5
antiproliferative ratio ([1]; albendazole 4 μM + pentamidine isethionate 0 μM): 2.4
antiproliferative ratio ([1]; albendazole 4 μM + pentamidine isethionate 0 μM, listed as albendazole): increased no further
antiproliferative ratio ([1]; albendazole 8 μM + pentamidine isethionate 0 μM): 3.1
inhibition of growth ([1]; albendazole alone, two micromolar): 60%

COC(=O)Nc1nc2ccc(C(=O)c3ccccc3)cc2[nH]1 [Mebendazole, mebendazole]
antiproliferative ratio ([1]; mebendazole 0.015 μM + pentamidine isethionate 0 μM): 1.0
antiproliferative ratio ([1]; mebendazole 0.03 μM + pentamidine isethionate 0 μM): 1.4
antiproliferative ratio ([1]; mebendazole 0.06 μM + pentamidine isethionate 0 μM): 1.0
antiproliferative ratio ([1]; mebendazole 0.13 μM + pentamidine isethionate 0 μM): 1.5
antiproliferative ratio ([1]; mebendazole 0.25 μM + pentamidine isethionate 0 μM): 1.5
antiproliferative ratio ([1]; mebendazole 0.5 μM + pentamidine isethionate 0 μM): 2.8
antiproliferative ratio ([1]; mebendazole 1 μM + pentamidine isethionate 0 μM): 3.4
antiproliferative ratio ([1]; mebendazole 2 μM + pentamidine isethionate 0 μM): 5.0
antiproliferative ratio ([1]; mebendazole 4 μM + pentamidine isethionate 0 μM): 4.4

CCCOc1ccc2nc(NC(=O)OC)[nH]c2c1 [Oxibendazole, oxibendazole]
antiproliferative ratio ([1]; oxibendazole 0.015 μM + pentamidine isethionate 0 μM): 1.0
antiproliferative ratio ([1]; oxibendazole 0.03 μM + pentamidine isethionate 0 μM): 1.1
antiproliferative ratio ([1]; oxibendazole 0.06 μM + pentamidine isethionate 0 μM): 1.0
antiproliferative ratio ([1]; oxibendazole 0.13 μM + pentamidine isethionate 0 μM): 1.1
antiproliferative ratio ([1]; oxibendazole 0.25 μM + pentamidine isethionate 0 μM): 1.0
antiproliferative ratio ([1]; oxibendazole 0.5 μM + pentamidine isethionate 0 μM): 1.6
antiproliferative ratio ([1]; oxibendazole 1 μM + pentamidine isethionate 0 μM): 2.9
antiproliferative ratio ([1]; oxibendazole 2 μM + pentamidine isethionate 0 μM): 3.2
antiproliferative ratio ([1]; oxibendazole 4 μM + pentamidine isethionate 0 μM): 3.6

N=C(N)c1ccc(OCCCCCOc2ccc(C(=N)N)cc2)cc1 [Pentamidine Isethionate, 4,4′-diamidino-diphenoxypentane di(β-hydroxyethanesulfonate)]
inhibition at 2 µM [1, 5]: 47%
inhibition at 4 µM [1, 5]: 55%
solubility in ether, acetone, and chloroform [2]: insoluble
solubility in water and glycerin [2]: soluble

c1ccc2[nH]c(-c3cscn3)nc2c1 [Thiabendazole, thiabendazole]
antiproliferative ratio ([1]; thiabendazole 0.25 μM + pentamidine isethionate 0 μM): 1.2
antiproliferative ratio ([1]; thiabendazole 0.5 μM + pentamidine isethionate 0 μM): 1.2
antiproliferative ratio ([1]; thiabendazole 1 μM + pentamidine isethionate 0 μM): 1.2
antiproliferative ratio ([1]; thiabendazole 2 μM + pentamidine isethionate 0 μM): 1.2
antiproliferative ratio ([1]; thiabendazole 4 μM + pentamidine isethionate 0 μM): 1.2
cross-resistance of nocodozole-resistant cell lines [3]: lack of cross-resistance

CC(=O)O[C@H]1C(=O)[C@@]2(C)[C@H]([C@H](OC(=O)c3ccccc3)[C@]3(O)C[C@H](OC(=O)[C@H](O)[C@@H](NC(=O)c4ccccc4)c4ccccc4)C(C)=C1C3(C)C)[C@]1(OC(C)=O)CO[C@@H]1C[C@@H]2O [paclitaxel]
antiproliferative ratio ([1]; control wells, paclitaxel final concentration 4.6 μM): 4.0

N=C(N)c1ccc(OCCCCCOc2ccc(C(=N)N)cc2)cc1 [pentamidine]
tissue distribution (concentration ranking) [4]: The concentration in the kidneys was the highest, followed by that in the liver
